{
  "source": "PubChem BioAssay AID1963966",
  "about": "(Molecular Pharmacology Branch, DTP, NCI, 2024);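 further: compound exposure lasted seven days before viability was read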;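 on viability, T/C: percent of vehicle DMSO treated spheroid viability so 100% = untreated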",
  "tested_on": "935938-334-R-J1-PDC spheroids with HUVEC/MSC, viability",
  "experiment": "Anticancer human tumor 935938-334-R-J1-PDC patient-derived small intestine adenocarcinoma cell line growth inhibition [PI3K]",
  "settings": "for IC50: curve of first compound; for viability, T/C: stronger effect = lower value",
  "how_it_was_run": "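Spheroid viability read-out. Co-cultures contained the tumor line plus HUVEC and human MSCs. Each agent was paired with a PI3K inhibitor (inavolisib, alpelisib, duvelisib, copanlisib) across half-log dilutions starting at clinical Cmax, or at 10 microM when Cmax was unknown.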",
  "key": {"[1]": {"settings": "second compound 0.00316 µM, first compound 0.0316 µM"}, "[2]": {"settings": "second compound 0.00316 µM, first compound 0.1 µM"}, "[3]": {"settings": "second compound 0.00316 µM, first compound 0.316 µM"}, "[4]": {"settings": "second compound 0.00316 µM, first compound 1 µM"}, "[5]": {"settings": "second compound 0.00316 µM, first compound 3.16 µM"}, "[6]": {"settings": "second compound 0.00316 µM, first compound 10 µM"}, "[7]": {"settings": "second compound 0.01 µM, first compound 0.0316 µM"}, "[8]": {"settings": "second compound 0.01 µM, first compound 0.1 µM"}, "[9]": {"settings": "second compound 0.01 µM, first compound 0.316 µM"}, "[10]": {"settings": "second compound 0.01 µM, first compound 1 µM"}, "[11]": {"settings": "second compound 0.01 µM, first compound 3.16 µM"}, "[12]": {"settings": "second compound 0.01 µM, first compound 10 µM"}, "[13]": {"settings": "second compound 0.0316 µM, first compound 0.0316 µM"}, "[14]": {"settings": "second compound 0.0316 µM, first compound 0.1 µM"}, "[15]": {"settings": "second compound 0.0316 µM, first compound 0.316 µM"}, "[16]": {"settings": "second compound 0.0316 µM, first compound 1 µM"}, "[17]": {"settings": "second compound 0.0316 µM, first compound 3.16 µM"}, "[18]": {"settings": "second compound 0.0316 µM, first compound 10 µM"}, "[19]": {"settings": "second compound 0.1 µM, first compound 0.0316 µM"}, "[20]": {"settings": "second compound 0.1 µM, first compound 0.1 µM"}, "[21]": {"settings": "second compound 0.1 µM, first compound 0.316 µM"}, "[22]": {"settings": "second compound 0.1 µM, first compound 1 µM"}, "[23]": {"settings": "second compound 0.1 µM, first compound 3.16 µM"}, "[24]": {"settings": "second compound 0.1 µM, first compound 10 µM"}, "[25]": {"settings": "second compound 0.316 µM, first compound 0.0316 µM"}, "[26]": {"settings": "second compound 0.316 µM, first compound 0.1 µM"}, "[27]": {"settings": "second compound 0.316 µM, first compound 0.316 µM"}, "[28]": {"settings": "second compound 0.316 µM, first compound 1 µM"}, "[29]": {"settings": "second compound 0.316 µM, first compound 3.16 µM"}, "[30]": {"settings": "second compound 0.316 µM, first compound 10 µM"}, "[31]": {"settings": "second compound 1 µM, first compound 0.0316 µM"}, "[32]": {"settings": "second compound 1 µM, first compound 0.1 µM"}, "[33]": {"settings": "second compound 1 µM, first compound 0.316 µM"}, "[34]": {"settings": "second compound 1 µM, first compound 1 µM"}, "[35]": {"settings": "second compound 1 µM, first compound 3.16 µM"}, "[36]": {"settings": "second compound 1 µM, first compound 10 µM"}},
  "data": [
    {"smiles": "C#Cc1c(F)ccc2cc(O)cc(-c3ncc4c(N5CC6CCC(C5)N6)nc(OCC56CCCN5CC(F)C6)nc4c3F)c12", "note": "(centres undefined) + CC(Nc1ccc2c(c1)OCCn1cc(N3C(=O)OCC3C(F)F)nc1-2)C(N)=O", "values": [
      {"measurement": "IC50", "setting": "second compound 0.00316 µM", "result": 3.79, "unit": "µM"},
      {"measurement": "IC50", "setting": "second compound 0.01 µM", "result": 3.11, "unit": "µM"},
      {"measurement": "IC50", "setting": "second compound 0.0316 µM", "result": 1.87, "unit": "µM"},
      {"measurement": "IC50", "setting": "second compound 0.1 µM", "result": 0.922, "unit": "µM"},
      {"measurement": "IC50", "setting": "second compound 0.316 µM", "result": 0.513, "unit": "µM"},
      {"measurement": "IC50", "setting": "second compound 1 µM", "result": 0.102, "unit": "µM"},
      {"measurement": "viability, T/C", "setting": "[1]", "result": 86.7, "unit": "%"},
      {"measurement": "viability, T/C", "setting": "[2]", "result": 88.4, "unit": "%"},
      {"measurement": "viability, T/C", "setting": "[3]", "result": 76, "unit": "%"},
      {"measurement": "viability, T/C", "setting": "[4]", "result": 67.9, "unit": "%"},
      {"measurement": "viability, T/C", "setting": "[5]", "result": 52.8, "unit": "%"},
      {"measurement": "viability, T/C", "setting": "[6]", "result": 36.1, "unit": "%"},
      {"measurement": "viability, T/C", "setting": "[7]", "result": 106, "unit": "%"},
      {"measurement": "viability, T/C", "setting": "[8]", "result": 74, "unit": "%"},
      {"measurement": "viability, T/C", "setting": "[9]", "result": 80.1, "unit": "%"},
      {"measurement": "viability, T/C", "setting": "[10]", "result": 69.1, "unit": "%"},
      {"measurement": "viability, T/C", "setting": "[11]", "result": 52, "unit": "%"},
      {"measurement": "viability, T/C", "setting": "[12]", "result": 31.1, "unit": "%"},
      {"measurement": "viability, T/C", "setting": "[13]", "result": 94.7, "unit": "%"},
      {"measurement": "viability, T/C", "setting": "[14]", "result": 80.1, "unit": "%"},
      {"measurement": "viability, T/C", "setting": "[15]", "result": 83.2, "unit": "%"},
      {"measurement": "viability, T/C", "setting": "[16]", "result": 61.3, "unit": "%"},
      {"measurement": "viability, T/C", "setting": "[17]", "result": 39.7, "unit": "%"},
      {"measurement": "viability, T/C", "setting": "[18]", "result": 28.8, "unit": "%"},
      {"measurement": "viability, T/C", "setting": "[19]", "result": 89.1, "unit": "%"},
      {"measurement": "viability, T/C", "setting": "[20]", "result": 84.1, "unit": "%"},
      {"measurement": "viability, T/C", "setting": "[21]", "result": 47.5, "unit": "%"},
      {"measurement": "viability, T/C", "setting": "[22]", "result": 56.7, "unit": "%"},
      {"measurement": "viability, T/C", "setting": "[23]", "result": 39.7, "unit": "%"},
      {"measurement": "viability, T/C", "setting": "[24]", "result": 28.2, "unit": "%"},
      {"measurement": "viability, T/C", "setting": "[25]", "result": 67.6, "unit": "%"},
      {"measurement": "viability, T/C", "setting": "[26]", "result": 71, "unit": "%"},
      {"measurement": "viability, T/C", "setting": "[27]", "result": 60.7, "unit": "%"},
      {"measurement": "viability, T/C", "setting": "[28]", "result": 34.7, "unit": "%"},
      {"measurement": "viability, T/C", "setting": "[29]", "result": 31.3, "unit": "%"},
      {"measurement": "viability, T/C", "setting": "[30]", "result": 22.8, "unit": "%"},
      {"measurement": "viability, T/C", "setting": "[31]", "result": 49.5, "unit": "%"},
      {"measurement": "viability, T/C", "setting": "[32]", "result": 51.2, "unit": "%"},
      {"measurement": "viability, T/C", "setting": "[33]", "result": 47.5, "unit": "%"},
      {"measurement": "viability, T/C", "setting": "[34]", "result": 35.2, "unit": "%"},
      {"measurement": "viability, T/C", "setting": "[35]", "result": 25, "unit": "%"},
      {"measurement": "viability, T/C", "setting": "[36]", "result": 17.2, "unit": "%"}
    ]},
    {"smiles": "C=CC(=O)N1CCN(c2nc(=O)n(-c3c(C)ccnc3C(C)C)c3nc(-c4c(O)cccc4F)c(F)cc23)C(C)C1", "note": "(centres undefined) + CC(Nc1ccc2c(c1)OCCn1cc(N3C(=O)OCC3C(F)F)nc1-2)C(N)=O", "values": [
      {"measurement": "IC50", "setting": "second compound 0.00316 µM", "result": "> 10", "unit": "µM"},
      {"measurement": "IC50", "setting": "second compound 0.01 µM", "result": "> 10", "unit": "µM"},
      {"measurement": "IC50", "setting": "second compound 0.0316 µM", "result": "> 10", "unit": "µM"},
      {"measurement": "IC50", "setting": "second compound 0.1 µM", "result": "> 10", "unit": "µM"},
      {"measurement": "IC50", "setting": "second compound 0.316 µM", "result": "> 10", "unit": "µM"},
      {"measurement": "IC50", "setting": "second compound 1 µM", "result": 8.04, "unit": "µM"},
      {"measurement": "viability, T/C", "setting": "[1]", "result": 101, "unit": "%"},
      {"measurement": "viability, T/C", "setting": "[2]", "result": 99.6, "unit": "%"},
      {"measurement": "viability, T/C", "setting": "[3]", "result": 103, "unit": "%"},
      {"measurement": "viability, T/C", "setting": "[4]", "result": 99.3, "unit": "%"},
      {"measurement": "viability, T/C", "setting": "[5]", "result": 91, "unit": "%"},
      {"measurement": "viability, T/C", "setting": "[6]", "result": 106, "unit": "%"},
      {"measurement": "viability, T/C", "setting": "[7]", "result": 96.9, "unit": "%"},
      {"measurement": "viability, T/C", "setting": "[8]", "result": 85, "unit": "%"},
      {"measurement": "viability, T/C", "setting": "[9]", "result": 90.4, "unit": "%"},
      {"measurement": "viability, T/C", "setting": "[10]", "result": 87.9, "unit": "%"},
      {"measurement": "viability, T/C", "setting": "[11]", "result": 92.5, "unit": "%"},
      {"measurement": "viability, T/C", "setting": "[12]", "result": 98.2, "unit": "%"},
      {"measurement": "viability, T/C", "setting": "[13]", "result": 134, "unit": "%"},
      {"measurement": "viability, T/C", "setting": "[14]", "result": 119, "unit": "%"},
      {"measurement": "viability, T/C", "setting": "[15]", "result": 101, "unit": "%"},
      {"measurement": "viability, T/C", "setting": "[16]", "result": 86, "unit": "%"},
      {"measurement": "viability, T/C", "setting": "[17]", "result": 85.8, "unit": "%"},
      {"measurement": "viability, T/C", "setting": "[18]", "result": 93.3, "unit": "%"},
      {"measurement": "viability, T/C", "setting": "[19]", "result": 88.4, "unit": "%"},
      {"measurement": "viability, T/C", "setting": "[20]", "result": 84.4, "unit": "%"},
      {"measurement": "viability, T/C", "setting": "[21]", "result": 98.3, "unit": "%"},
      {"measurement": "viability, T/C", "setting": "[22]", "result": 104, "unit": "%"},
      {"measurement": "viability, T/C", "setting": "[23]", "result": 89.5, "unit": "%"},
      {"measurement": "viability, T/C", "setting": "[24]", "result": 97.7, "unit": "%"},
      {"measurement": "viability, T/C", "setting": "[25]", "result": 80.9, "unit": "%"},
      {"measurement": "viability, T/C", "setting": "[26]", "result": 80.5, "unit": "%"},
      {"measurement": "viability, T/C", "setting": "[27]", "result": 71, "unit": "%"},
      {"measurement": "viability, T/C", "setting": "[28]", "result": 74.2, "unit": "%"},
      {"measurement": "viability, T/C", "setting": "[29]", "result": 72.5, "unit": "%"},
      {"measurement": "viability, T/C", "setting": "[30]", "result": 68.1, "unit": "%"},
      {"measurement": "viability, T/C", "setting": "[31]", "result": 86, "unit": "%"},
      {"measurement": "viability, T/C", "setting": "[32]", "result": 67.6, "unit": "%"},
      {"measurement": "viability, T/C", "setting": "[33]", "result": 66.3, "unit": "%"},
      {"measurement": "viability, T/C", "setting": "[34]", "result": 80.3, "unit": "%"},
      {"measurement": "viability, T/C", "setting": "[35]", "result": 86.9, "unit": "%"},
      {"measurement": "viability, T/C", "setting": "[36]", "result": 43.5, "unit": "%"}
    ]}
  ]
}
